Literature values as cited in patent US20210298340A1, “Cannabis-Infused Product with Extended Cannabinoid Profile User Experience” (HEXO Operations Inc., priority 2018, published 2021).
Read-outs that look alike come from different tables or passages of the source.

Legend:
[1] = rats; solution in MCT oil or emulsion with droplet size 160 nm or 710 nm
[2] = tested on: skin; settings: 3 macro-emulsions >1000 nm and 3 nano-emulsions <100 nm
[3] = dogs; emulsion with droplet size 119 nm or 52 nm

For `COc1nc(C(Cl)(Cl)Cl)c(Cl)c(OC)c1Cl` [penclomedine], the bioavailability [1] is listed as “comparable”.
For `CCCCNc1ccc(C(=O)OCCN(C)C)cc1` [tetracaine], the “influence of emulsion droplet size on in vitro dermal and transdermal skin penetration” value [2] is listed as “no influence”.
For `CCCCN(CCCC)CCC(O)c1cc2c(Cl)cc(Cl)cc2c2cc(C(F)(F)F)ccc12` (stereo not drawn) [halofantrine], the bioavailability [3] is listed as “comparable”.
